Experiment [1] addresses T1, human CB2 receptors (Homo sapiens, UniProt P34972).
T1 construct: expressed in transfected cells; host or cells: CHO cells
Nature of the experiment: functional cAMP assay, CHO cells expressing human CB2. The format is cell-based. The method, then:
The growth medium was exchanged with Krebs Ringer Bicarbonate buffer with 1 mM IBMX and incubated at 30° C. for 30 min. Compounds were added to a final assay volume of 100 μl and incubated for 30 min at 30° C. […] The time-resolved energy transfer is measured by a TRF reader (Evotec Technologies GmbH), equipped with a ND:YAG laser as excitation source. The plate is measured twice with the excitation at 355 nm and at the emission with a delay of 100 ns and a gate of 100 ns, total exposure time 10 s at 730 (bandwidth 30 nm) or 645 nm (bandwidth 75 nm), respectively.
EC50 values were determined using Activity Base analysis (ID Business Solution, Limited).

Experiment [2] addresses T2, human CB1 receptors (Homo sapiens, UniProt P21554).
T2 construct: expressed in transfected cells; host or cells: CHO cells
The experiment can be described thus: functional cAMP assay, CHO cells expressing human CB1. The format is cell-based. Here is the method: CHO cells expressing human CB1 or CB2 receptors are seeded 17-24 hours prior to the experiment 50.000 cells per well in a black 96 well plate with flat clear bottom (Corning Costar #3904) in DMEM (Invitrogen No. 31331), 1×HT supplement, with 10% fetal calf serum and incubated at 5% CO2 and 37° C. in a humidified incubator. The growth medium was exchanged with Krebs Ringer Bicarbonate buffer with 1 mM IBMX and incubated at 30° C. for 30 min. Compounds were added to a final assay volume of 100 μl and incubated for 30 min at 30° C. Using the cAMP-Nano-TRF detection kit the assay (Roche Diagnostics) was stopped by the addition of 50 μl lysis reagent (Tris, NaCl, 1.5% Triton X100, 2.5% NP40, 10% NaN3) and 50 μl detection solutions (20 μM mAb Alexa700-cAMP 1:1, and 48 μM Ruthenium-2-AHA-cAMP) and shaken for 2 h at room temperature. The time-resolved energy transfer is measured by a TRF reader (Evotec Technologies GmbH), equipped with a ND:YAG laser as excitation source. The plate is measured twice with the excitation at 355 nm and at the emission with a delay of 100 ns and a gate of 100 ns, total exposure time 10 s at 730 (bandwidth 30 nm) or 645 nm (bandwidth 75 nm), respectively. The FRET signal is calculated as follows: FRET=T730-Alexa730-P(T645-B645) with P=Ru730-B730/Ru645-B645, where T730 is the test well measured at 730 nM, T645 is the test well measured at 645 nm, B730 and B645 are the buffer controls at 730 nm and 645 nm, respectively. cAMP content is determined from the function of a standard curve spanning from 10 μM to 0.1 nM cAMP.
EC50 values were determined using Activity Base analysis (ID Business Solution, Limited). The EC50 values for a wide range of cannabinoid agonists generated from this assay were in agreement with the values published in the scientific literature.

[3] abbreviates: CHO cells expressing human CB2, read-out: Ec50:CB2 - hu cAMP.
The mark [4] stands for this setting: CHO cells expressing human CB1, read-out: Ec50:CB1 - hu cAMP.

Read-outs that look alike come from different tables or passages of the source.

T1 sequence (P34972 whole entry): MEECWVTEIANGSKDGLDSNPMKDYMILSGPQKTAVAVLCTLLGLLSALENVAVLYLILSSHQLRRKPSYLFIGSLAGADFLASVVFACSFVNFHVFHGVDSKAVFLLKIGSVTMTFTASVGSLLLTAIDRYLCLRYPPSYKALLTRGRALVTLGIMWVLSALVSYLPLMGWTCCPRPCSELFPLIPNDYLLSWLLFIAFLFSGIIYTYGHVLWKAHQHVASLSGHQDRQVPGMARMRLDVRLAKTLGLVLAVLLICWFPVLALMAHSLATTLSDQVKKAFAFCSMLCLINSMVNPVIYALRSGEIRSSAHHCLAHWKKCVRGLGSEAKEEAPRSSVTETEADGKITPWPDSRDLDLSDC
T2 sequence (P21554 whole entry): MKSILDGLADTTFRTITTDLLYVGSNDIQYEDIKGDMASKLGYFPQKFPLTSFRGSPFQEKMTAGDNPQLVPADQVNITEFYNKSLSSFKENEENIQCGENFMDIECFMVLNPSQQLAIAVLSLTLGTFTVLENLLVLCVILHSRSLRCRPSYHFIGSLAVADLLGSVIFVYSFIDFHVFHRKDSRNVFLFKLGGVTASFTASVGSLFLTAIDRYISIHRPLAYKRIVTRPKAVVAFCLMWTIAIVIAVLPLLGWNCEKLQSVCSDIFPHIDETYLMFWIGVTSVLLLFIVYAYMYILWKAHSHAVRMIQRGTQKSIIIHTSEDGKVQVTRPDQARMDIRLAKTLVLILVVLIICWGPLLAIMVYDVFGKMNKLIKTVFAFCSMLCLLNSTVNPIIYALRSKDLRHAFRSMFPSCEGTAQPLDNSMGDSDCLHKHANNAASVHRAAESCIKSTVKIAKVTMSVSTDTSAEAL

For `O=C(N1Cc2ccc(F)cc2C1)C12CC3CC(CC(C3)C1)C2` [Example 45, Adamantan-1-yl-(5-fluoro-1,3-dihydro-isoindol-2-yl)-methanone], the results for the 50% effective concentration (EC50) in experiment [1] (setting [3]) and in experiment [2] (setting [4]) were 41.7 nM and above 10000 nM, respectively.

Regarding `O=C1C2CC3CC1CC(C(=O)N1CCc4ccccc41)(C3)C2` [Example 40, 5-(2,3-Dihydro-indole-1-carbonyl)-adamantan-2-one], the results for the EC50 in experiment [1] (setting [3]) and in experiment [2] (setting [4]) were 594 nM and above 10000 nM, respectively.

With `O=C(N1CCc2ccccc2C1)C12CC3CC(CC(C3)C1)C2` [Example 1, Adamantan-1-yl-(3,4-dihydro-1H-isoquinolin-2-yl)-methanone], the values for the EC50 in experiment [1] (setting [3]) and in experiment [2] (setting [4]) were 69.4 nM and above 10000 nM, respectively.

Regarding `O=C(N1CCOc2ccccc21)C12CC3CC(CC(C3)C1)C2` [Example 7, Adamantan-1-yl-(2,3-dihydro-benzo[1,4]oxazin-4-yl)-methanone], the EC50 in experiment [1] (setting [3]) was 180 nM; in experiment [2] (setting [4]) it was above 10000 nM.

With `O=C(N1CCc2ccc([N+](=O)[O-])cc21)C12CC3CC(CC(C3)C1)C2` [Example 13, Adamantan-1-yl-(6-nitro-2,3-dihydro-indol-1-yl)-methanone], the EC50 in experiment [1] is 19.4 nM; in experiment [2], above 10000 nM.

With `O=C(N1CCc2c1ccnc2Cl)C12CC3CC(CC(C3)C1)C2` [Example 20, Adamantan-1-yl-(4-chloro-2,3-dihydro-pyrrolo[3,2-c]pyridin-1-yl)-methanone], the EC50 in experiment [1] (setting [3]) was 273 nM; in experiment [2] (setting [4]), above 10000 nM.

Consider `CN1CCN(C(=O)C23C[C@H]4C[C@@H](C2)C[C@@H](C3)C4)c2ccccc21` [Example 31, Adamantan-1-yl-(4-methyl-3,4-dihydro-2H-quinoxalin-1-yl)-methanone], for which the 50% effective concentration (EC50) was 28.9 nM in experiment [1] and above 10000 nM in experiment [2].

Regarding `CCCCOC1CCN(C(=O)C23CC4CC(CC(C4)C2)C3)c2ccccc21` (stereo not drawn) [Example 34, Adamantan-1-yl-(4-butoxy-3,4-dihydro-2H-quinolin-1-yl)-methanone], the figures for the EC50 in experiment [1] and in experiment [2] were 7.2 nM and above 10000 nM, respectively.

For `CC(C)C1(CO)CCN(C(=O)C23CC4CC(CC(C4)C2)C3)c2ccccc21` (stereo not drawn) [Example 6, Adamantan-1-yl-(4-hydroxymethyl-4-isopropyl-3,4-dihydro-2H-quinolin-1-yl)-methanone], the half-maximal effective concentration (EC50) is 400 nM in experiment [1] (setting [3]) and above 10000 nM in experiment [2] (setting [4]).

On to `O=C(NC12CC3CC(CC(C3)C1)C2)N1CCc2ccccc21` [Example 38, 2,3-Dihydro-indole-1-carboxylic acid adamantan-1-ylamide], for which the EC50 in experiment [1] (setting [3]) is 2.4 nM; in experiment [2] (setting [4]), above 10000 nM.

Take `Cc1ccc2c(c1)N(C(=O)C13CC4CC(CC(C4)C1)C3)CC2` [Example 27, Adamantan-1-yl-(6-methyl-2,3-dihydro-indol-1-yl)-methanone]: the half-maximal effective concentration (EC50) in experiment [1] (setting [3]) is 6.6 nM; in experiment [2] (setting [4]), above 10000 nM.

Regarding `COC(=O)c1ccc2c(c1)CCN2C(=O)C12CC3CC(CC(C3)C1)C2` [Example 19, 1-(Adamantane-1-carbonyl)-2,3-dihydro-1H-indole-5-carboxylic acid methyl ester], the half-maximal effective concentration (EC50) in experiment [1] (setting [3]) is 70.6 nM; in experiment [2] (setting [4]), above 10000 nM.

For the origin of these results see patent US9090615B2, “Adamantyl derivatives as cannabinoid receptor 2 agonists” (Hoffmann-La Roche Inc., priority 2012, dated 2015).
